Measurements reported in patent US10406169B2, “Methods of monitoring estriol therapy” (The Regents of the University of California, priority 2015, dated 2019).

Key:
Assay type in all cases: in vivo, human
[1] = system: relapsing-remitting multiple sclerosis; assay: Multiple Sclerosis Functional Composite (PASAT3, 9-hole peg, 25-foot walk); design: PASAT3 score, Mean ± SD / PASAT3 score, Median / PASAT3 score change from baseline, Mean ± SD / PASAT3 score change from baseline, Median: scale not given here; 25-foot Walk Time change from baseline, Mean ± SD / 25-foot Walk Time change from baseline, Median: unit not given here
Source text: Tertiary end points included gray matter atrophy on MRI, and changes in results from baseline on questionnaires including the Modified Fatigue Impact Scale, Beck Depression Inventory, and MS Quality of Life. Mixed effects negative binomial regression model and linear mixed effects model were used to compare enhancing lesion volume (log-transformed) between treatment groups at all follow-ups, and mixed effects logistic model was used to compare the number of subjects positive for gadolinium enhancing lesions. Linear mixed effects model was carried out to compare the percent change in whole gray matter and cortical gray matter between treatment groups. […] Mixed effects models were used to assess the association among outcomes and estriol levels at all follow-ups and using subjects in both treatment groups. Mixed effects logistic regression model was used to evaluate the association between the number of enhancing lesions and the occurrence of relapse at all follow-up intervals. Linear mixed effects model was carried out to evaluate the association between PASAT change and percent brain volume change, as well as between PASAT change and estriol levels.

[2] = system: relapsing-remitting multiple sclerosis; assay: Confirmed relapses (annualized relapse rate, time to first relapse); conditions: for Annualized relapse rate in 12 months, Rate (95% CI) / Annualized relapse rate in 24 months, Rate (95% CI): negative binomial regression
Experimental: The primary efficacy end point was the annualized relapse rate. A relapse was defined as the appearance of new neurological symptoms or the worsening of pre-existing symptoms, lasting at least 48 hours in a subject who had been neurologically stable or improving in the previous 30 days, accompanied by an objective change in a neurological examination (i.e., a worsening of 0.5 or more points on the EDSS or a worsening by 1.0 or more points on the pyramidal, cerebellar, brainstem or visual functional system scores, not due to fatigue alone and not associated with fever or infection). […] Both treating and examining physicians were unaware of study group assignments. The standard treatment for relapse was a 3-5 day course of glucocorticoids at the discretion of the treating neurologist.
Intention-to-treat analyses were carried out for all end points. […] To control the overall type I error, a sequential testing procedure was applied. […] Consistent with a phase 2 study using a clinical outcome, a p-value<0.10 was considered statistically significant.
For the time to first relapse analysis, Kaplan Meier curves and log-rank test were used to estimate and compare the relapse free probabilities of the two treatment groups. Cox proportional hazards model was used to compare the time to relapse free probabilities between two groups adjusting for covariates. […] The random effect of subject is included in the model to account for within subject correlation.
For the primary endpoint, the main analysis seeks to compare the relapse event rate between treatment groups based on the negative binomial regression. As a sensitivity analysis, recurrent events analysis was performed based on Andersen Gill model to compare the relapse hazard rate between treatment groups.

[3] = system: relapsing-remitting multiple sclerosis; assay: Disability and questionnaire outcomes (EDSS, MFIS, BDI, MSQOL); conditions: for Proportion of pts with disability (EDSS) progression at 24 months % (95% CI): Kaplan-Meier
Experimental: EDSS assessments were performed by physicians who were trained either by in-person training or online (www.Neurostatus.net). […] Tertiary end points included gray matter atrophy on MRI, and changes in results from baseline on questionnaires including the Modified Fatigue Impact Scale, Beck Depression Inventory, and MS Quality of Life. Mixed effects negative binomial regression model and linear mixed effects model were used to compare enhancing lesion volume (log-transformed) between treatment groups at all follow-ups, and mixed effects logistic model was used to compare the number of subjects positive for gadolinium enhancing lesions. Linear mixed effects model was carried out to compare the percent change in whole gray matter and cortical gray matter between treatment groups.

[4] = Month 24 (second line, N = 60 / 55)
[5] = Month 24 as printed (first of two lines, N = 70 / 60)
[6] = Patients with baseline score <55, Baseline
[7] = Patients with baseline score <55, Month 12
[8] = Patients with baseline score <55, Month 24
[9] = 24 months, negative = improvement

glatiramer acetate [Placebo + GA]
PASAT3 score, Mean ± SD ([1]; All patients, Baseline): 52.3 ± 9.1 | PASAT3 score, Median ([1]; All patients, Baseline): 56 | PASAT3 score % change from baseline, Mean ± SD ([1]; All patients, Month 12): 0.8 ± 9.9% | PASAT3 score % change from baseline, Median ([1]; All patients, Month 12): 0% | PASAT3 score change from baseline, Mean ± SD ([1]; All patients, Month 12): 0.1 ± 4.5 | PASAT3 score change from baseline, Median ([1]; All patients, Month 12): 0 | PASAT3 score % change from baseline, Mean ± SD ([1]; All patients, Month 24): 2.7 ± 10.3% | PASAT3 score % change from baseline, Median ([1]; All patients, Month 24): 0% | PASAT3 score change from baseline, Mean ± SD ([1]; All patients, Month 24): 1.1 ± 4.3 | PASAT3 score change from baseline, Median ([1]; All patients, Month 24): 0 | 9-Hole Peg Test, Mean ± SD ([1]; Baseline): 19.1 ± 2.7 | 9-Hole Peg Test, Median ([1]; Baseline): 18.8 | 25-foot Walk Time, Median ([1]; Baseline): 4.5 s | MSFC Score, Mean ± SD ([1]; Baseline): 0.06 ± 0.79 | MSFC Score, Median ([1]; Baseline): 0.24 | 25-foot Walk Time, Mean ± SD ([1]; Baseline, in s (unit assumed)): 4.9 ± 1.5 | 9-Hole Peg Test change from baseline, Mean ± SD ([1]; Month 12): −0.1 ± 1.8 | 9-Hole Peg Test change from baseline, Median ([1]; Month 12): −0.4 | MSFC Score change from baseline, Mean ± SD ([1]; Month 12): 0.06 ± 0.38 | 9-Hole Peg Test change from baseline, Mean ± SD ([1]; Month 24): −0.4 ± 1.5 | 9-Hole Peg Test change from baseline, Median ([1]; Month 24): −0.5 | MSFC Score change from baseline, Mean ± SD ([1]; Month 24): 0.09 ± 0.43 | 25-foot Walk Time change from baseline, Mean ± SD [1, 4]: 0.1 ± 1.1 | 25-foot Walk Time change from baseline, Median [1, 4]: 0.1 | 25-foot Walk Time change from baseline, Mean ± SD [1, 5]: 0.0 ± 0.9 | 25-foot Walk Time change from baseline, Median [1, 5]: 0.0 | PASAT3 score, Mean ± SD [1, 6]: 44.7 ± 9.1 | PASAT3 score, Median [1, 6]: 49 | PASAT3 score % change from baseline, Mean ± SD [1, 7]: 4.0 ± 14.0% | PASAT3 score % change from baseline, Median [1, 7]: 3.8% | PASAT3 score change from baseline, Mean ± SD [1, 7]: 1.6 ± 6.0 | PASAT3 score change from baseline, Median [1, 7]: 1.0 | PASAT3 score % change from baseline, Mean ± SD [1, 8]: 6.9 ± 14.7% | PASAT3 score % change from baseline, Median [1, 8]: 9.1% | PASAT3 score change from baseline, Mean ± SD [1, 8]: 3.0 ± 5.9 | PASAT3 score change from baseline, Median [1, 8]: 4.0 | Proportion of pts with relapse at 12 months % (95% CI) ([2]; Kaplan-Meier): 33.1 (23.5-45.2) % | Proportion of pts with relapse at 24 months % (95% CI) ([2]; Kaplan-Meier): 42.9 (32.1-55.5) % | Annualized relapse rate in 12 months, Rate (95% CI) [2]: 0.48 (0.33-0.69) | Annualized relapse rate in 24 months, Rate (95% CI) [2]: 0.37 (0.25-0.53) | Annualized relapse rate in 12 months, Rate (95% CI) ([2]; listed as Placebo+GA): 0.48 | Annualized relapse rate in 24 months, Rate (95% CI) ([2]; listed as Placebo+GA): 0.37 | Beck Depression Inventory (BDI) score median change from baseline [3, 9]: −3.5 | MFIS score median change from baseline [3, 9]: 0 | Proportion of pts with disability (EDSS) progression at 24 months % (95% CI) [3]: 15.8 (8.8-27.6) % | Proportion of pts with disability (EDSS) progression at 24 months % (95% CI) ([3]; listed as Placebo plus GA): 15.8% | MSQOL composite scores for Physical outcomes ([3]; change from baseline): no change | EDSS score reduction from baseline to Month 24, Mean ± SD ([3]; in vivo): 0.05 ± 1.13 | EDSS score reduction from baseline to Month 24, Median ([3]; in vivo): 0.0 | EDSS absolute median change from baseline ([3]; month 24, negative = improvement): 0
